Patent US20240358721A1, “GASDERMIN-D INHIBITORS AND USES THEREOF FOR TREATING PULMONARY VASO-OCCLUSION” (UNIVERSITY OF PITTSBURGH-OF THE COMMONWEALTH SYSTEM OF …, priority 2021, published 2024)
Entries after “also recorded” stand apart in the source; their conditions may differ. Where a SMILES comes first, the peptide text is derived from it. The star is where a group is joined. Cbz = O=C(OCc1ccccc1)*; CH2F = FC*

What was measured:
Type in all cases: in vivo, mouse
SCD-Selp−/− mice [1] = assay: qFILM assessment of P-selectin-independent pulmonary vaso-occlusion in SCD-Selp−/− mice IV administered oxy-Hb; conditions: IV 10 μmole/kg oxy-Hb with 10 mg/kg inhibitor vs oxy-Hb alone
Excerpt: (§1) Quantitative fluorescence intravital lung microscopy (qFILM) was used to assess the absence or presence of platelet-neutrophil aggregate mediated pulmonary vaso-occlusion. Pulmonary microcirculation (pseudo-colored purple), neutrophils (red) and platelets (pseudo-colored green) were labeled in vivo by IV administration of FITC dextran, AF546-anti-Ly6G Ab and V450-anti-CD49b Ab, respectively. […] White arrows denote the direction of blood flow within the pulmonary arterioles. Alveoli are marked with asterisks. Scale bars 20 μm. The diameter of pulmonary arteriole in B-E is ˜22 μm, 32 μm, 31.5 μm, and 31 μm, respectively. […] Refer Online Data Supplement for details. […] The data for mice with SCD IV administered 10 oxy-Hb (n=5 mice; 75 FOVs) are included as black bars in FIGS. 1N and 1O for relative comparison. qFILM FOV size ˜65 536 μm^2. Data represent mean ±SE and are compared using Student t test. *P<0.05 (FIG. 1P) Schematic showing the main findings of the study. The sterile inflammatory milieu (DAMPs, IFN-I signaling, and ROS) in SCD promotes caspase-4 (humans) or caspase-11 (mouse)-dependent cleavage of neutrophil GSDMD into the active form GSDMD-NT, leading to the shedding of NETs in the liver microcirculation. Once shed, these NETs are carried by the blood as cNETs to the lung, where they promote neutrophil-platelet aggregation in the pulmonary arterioles, leading to PVO and lung injury (acute chest syndrome).
SCD-Selp^−/− mice were IV administered 10 μmole/kg oxy-Hb (10 oxy-Hb) without or with 10 mg/kg GSDMD inhibitor (Disulfiram). Quantitative fluorescence intravital lung microscopy (qFILM) was used to assess the absence or presence of pulmonary vasoocclusion using the same experimental scheme described in FIG. 1A. Pulmonary vasoocclusions (PVOs) were compared between treatment groups using following two parameters: Number of PVOs per Field of View (#PVOs/FOV) and number of large PVOs (with area>1000 μm^2) per FOV. […] The data for SCD mice IV administered 10 oxy-Hb (n=5 mice; 75 FOVs) is included as black bars in FIGS. 4A and 4B for relative comparison. FOV size˜65,536 μm^2. […]
(§2) (FIG. 5A) Experimental scheme: SCD or SCD-Selp^−/− mice were IV administered 10 μmole/kg oxy-Hb (10 oxy-Hb) without or with 10 mg/kg GSDMD inhibitors LDC75591 or Disulfiram. In FIGS. 5C-5D, venous blood was processed to generate PPP and cNETs detected in PPP using Imaging Flow Cytometry. Imaging Flow Cytometry data was quantified to estimate concentration of cNETs (#cNETs/μl of plasma). In FIGS. 5B, and 5E-5F, quantitative fluorescence intravital lung microscopy (qFILM) was used to detect arrival of circulating NETs (cNETs) within the lung microcirculation. Number of cNETs entering per FOV over a 1-minute duration (#cNETs/FOV/min) were quantified. […]

SCD-Selp−/− mice [2] = assay: qFILM detection of circulating NETs arriving in the lung microcirculation, SCD-Selp−/− mice; conditions: IV 10 μmole/kg oxy-Hb with 10 mg/kg inhibitor vs oxy-Hb alone, significant
Method: as §2, with “quantified. In FIGS. 5G-5J, qFILM was used to assess the absence or presence of pulmonary vaso-occlusion using the experimental strategy described in FIG. 1A. Pulmonary vaso-occlusions (PVOs) were compared between treatment groups using following two parameters: Number of PVOs per Field of View (#PVOs/FOV) and number of large PVOs (with area>1000 μm^2) per FOV.” for “quantified.”
Quantitative fluorescence intravital lung microscopy (qFILM) has been used widely for in vivo assessment of pulmonary vasoocclusion in mice with SCD [Bennewitz M F et al., (2017); Vats R, Brzoska T, Bennewitz M F, et al. (2020); Vats R, Tutuncuoglu E, Pradhan-Sundd T, Tejero J, Shaw G D, Sundd P. (2020); Bennewitz M F, Tutuncuoglu E, Gudapati S, et al. (2020)] […]

SCD mice = assay: qFILM assessment of pulmonary vaso-occlusion in SCD mice IV administered oxy-Hb; conditions: LDC7559 10 mg/kg, Z-VAD-FMK 0.004 μmol/kg; for Number of PVOs per Field of View (#PVOs/FOV) / number of large PVOs (with area>1000 μm^2) per FOV: IV 10 μmole/kg oxy-Hb with inhibitor vs oxy-Hb alone; for Number of PVOs per Field of View (#PVOs/FOV) / number of large PVOs (with area>1000 μm^2) per FOV / blood flow in the lung (rapidly transiting erythrocytes) / lung vaso-occlusion in representative qFILM images: NSA 20 mg/kg; for blood flow in the lung (rapidly transiting erythrocytes) / lung vaso-occlusion in representative qFILM images / large neutrophil-platelet aggregates occluding the arteriolar bottle-necks in the lung: IV 10 μmole/kg oxy-Hb with inhibitor; for large neutrophil-platelet aggregates occluding the arteriolar bottle-necks in the lung: Necrosulfonamide 20 mg/kg
Excerpt: as §1
Intravital lung microscopy (experimental scheme shown in FIG. 1A) was conducted in live mice to assess whether preventing liver-to-lung embolization of cNETs by inhibiting or deleting GSDMD-signaling leads to amelioration of pulmonary vaso-occlusion. Although large neutrophil-platelet aggregates (marked with dotted ellipses) were seen occluding the arteriolar bottle-necks, leading to impaired blood flow in the lung of SCD mice IV administered 10 μmole/kg oxy-Hb (FIG. 1B), such aggregates were rare in the lung of SCD mice IV administered 10 μmole/kg oxy-Hb with 0.004 μmol/kg pan-caspase inhibitor Z-VAD-FMK (FIG. 1C) or 10 mg/kg GSDMD-NT inhibitor LDC7559 (FIG. 1D) or 20 mg/kg GSDMD-NT inhibitor Necrosulfonamide (FIG. 1E). […] The twofold higher dose of 20 μmole/kg IV oxy-Hb also led to the development of lung vaso-occlusion in WT but not Gsdmd^−/− mice (FIG. 2). […] P-selectin deficiency led to an approximately 50% reduction in pulmonary vaso-occlusion in SCD-Selp^−/− mice administered 10 μmole/kg IV oxy-Hb (FIG. 3), however, IV administration of oxy-Hb with GSDMD-NT inhibitor (LDC7559) led to further threefold (significant) reduction in pulmonary vaso-occlusions per FOV (FIGS. 1N and 4A, and FIG. 5) and absence of large pulmonary vaso-occlusions (area>1000 μm^2) per FOV (FIG. 10) in SCD-Selp^−/− mice.
Quantitative fluorescence intravital lung microscopy (qFILM) has been used widely for in vivo assessment of pulmonary vasoocclusion in mice with SCD [Bennewitz M F et al., (2017); Vats R, Brzoska T, Bennewitz M F, et al. (2020); Vats R, Tutuncuoglu E, Pradhan-Sundd T, Tejero J, Shaw G D, Sundd P. (2020); Bennewitz M F, Tutuncuoglu E, Gudapati S, et al. (2020)] In the current study, qFILM was used to assess pulmonary vaso-occlusion and detect NETs in the intact lung microcirculation of live mice following IV challenge with saline, oxy-hemoglobin (oxy-Hb), hemin, or lipo-polysaccharide with or without pretreatment with N-terminus active domain (GSDMD-NT) inhibitors LDC7559 [Sollberger G, Choidas A, Burn G L, et al. (2018)], NSA [Rathkey J K, Zhao J, Liu Z, et al. (2018)], Disulfiram [Hu J J, Liu X, Xia S, et al. (2020)], or the pan-caspase inhibitor Z-VAD-FMK [Sollberger G, Choidas A, Burn G L, et al. (2018)], haptoglobin [Belcher J D, Chen C, Nguyen J, et al. (2014)], or TLR4-inhibitor (TAK242) [Belcher J D, Chen C, Nguyen J, et al. (2014)]. qFILM was conducted with a Nikon multiphoton excitation fluorescence microscope and an APO LWD 25×water immersion objective with 1.1 NA. […]

CCN(CC)C(=S)SSC(=S)N(CC)CC [Disulfiram, disulfiram]
number of large PVOs (with area>1000 μm^2) per FOV (SCD-Selp−/− mice [1]): absent | Number of PVOs per Field of View (#PVOs/FOV) (SCD-Selp−/− mice [1]; 10 mg/kg): significantly reduced | #cNETs/FOV/min in the lung, less than 10 oxy-Hb alone (SCD-Selp−/− mice [2]): 4 folds

COc1nccnc1NS(=O)(=O)c1ccc(NC(=O)/C=C/c2ccc([N+](=O)[O-])s2)cc1 [Necrosulfonamide, necrosulfonamide]
Number of PVOs per Field of View (#PVOs/FOV) (SCD mice): significantly reduced | number of large PVOs (with area>1000 μm^2) per FOV (SCD mice): significantly reduced | Number of PVOs per Field of View (#PVOs/FOV) (SCD mice; listed as NSA): significantly less | number of large PVOs (with area>1000 μm^2) per FOV (SCD mice; listed as NSA): significantly less | blood flow in the lung (rapidly transiting erythrocytes) (SCD mice): significantly improved | lung vaso-occlusion in representative qFILM images (SCD mice): lack of pulmonary vaso-occlusion | lung vaso-occlusion in representative qFILM images (SCD mice; listed as NSA): absence of lung vaso-occlusion | large neutrophil-platelet aggregates occluding the arteriolar bottle-necks in the lung (SCD mice): rare

COC(=O)C[C@H](NC(=O)[C@H](C)NC(=O)[C@@H](NC(=O)OCc1ccccc1)C(C)C)C(=O)CF [Z-VAD-FMK] (Cbz-Val-Ala-Asp(OMe)-CH2F)
Number of PVOs per Field of View (#PVOs/FOV) (SCD mice): significantly less; also recorded: significantly reduced | number of large PVOs (with area>1000 μm^2) per FOV (SCD mice): significantly less; also recorded: significantly reduced | blood flow in the lung (rapidly transiting erythrocytes) (SCD mice): significantly improved | lung vaso-occlusion in representative qFILM images (SCD mice): absence of lung vaso-occlusion; also recorded: lack of pulmonary vaso-occlusion | large neutrophil-platelet aggregates occluding the arteriolar bottle-necks in the lung (SCD mice): rare
